The values that follow come from US20100160385A1, “FUNGICIDAL TRIPHENYL-SUBSTITUTED PYRIDONES” (E.I. DU PONT DE NEMOURS AND COMPANY, priority 2008, published 2010).

Test [1] deals with Puccinia recondite f. sp. tritici. The test is described as follows: Test B: wheat leaf rust, preventive spray on wheat seedlings. In kind it is in vivo. Conditions: wheat seedlings sprayed to run-off, inoculated following day, 24 h saturated atmosphere then 7 days at 20° C.; 100 = 100% disease control, 0 = no control; test concentration not given.
The next test relates to Alternaria solani. Conditions: tomato seedlings sprayed to run-off, inoculated following day, 48 h saturated atmosphere at 27° C. then 5 days at 20° C.; 100 = 100% disease control, 0 = no control; test concentration not given.
A further test concerns Septoria nodorum. The test can be described thus: Test D: wheat glume blotch, preventive spray on wheat seedlings. In kind it is in vivo. To be noted: wheat seedlings sprayed to run-off, inoculated following day, 48 h saturated atmosphere then 7 days at 20° C.; 100 = 100% disease control, 0 = no control; test concentration not given.
For test [2], the system named is Erysiphe graminis f. sp. tritici. The test is described as follows: Test A: wheat powdery mildew, preventive spray on wheat seedlings. The class given is in vivo. Conditions: wheat seedlings sprayed to run-off, inoculated following day, rated after 8 days at 20° C.; 100 = 100% disease control, 0 = no control; test concentration not given.
Another test deals with Septoria tritici. The test is described as follows: Test C: wheat leaf blotch, preventive spray on wheat seedlings. In kind it is in vivo. To be noted: wheat seedlings sprayed to run-off, inoculated following day, 48 h saturated atmosphere then 19 days at 20° C.; 100 = 100% disease control, 0 = no control; test concentration not given.
The next test relates to Botrytis cinerea. To be noted: tomato seedlings sprayed to run-off, inoculated following day, 48 h saturated atmosphere at 20° C. then 3 days at 24° C.; 100 = 100% disease control, 0 = no control; test concentration not given.

Description for Alternaria solani: (§1) General protocol for preparing test suspensions for Tests A-F: the test compounds were first dissolved in acetone in an amount equal to 3% of the final volume and then suspended at the desired concentration (in ppm) in acetone and purified water (50/50 mix by volume) containing 250 ppm of the surfactant Trem® 014 (polyhydric alcohol esters). The resulting test suspensions were then used in Tests A-F. Spraying a 200 ppm test suspension to the point of run-off on the test plants was the equivalent of a rate of 500 g/ha.
The test suspension was sprayed to the point of run-off on tomato seedlings. The following day the seedlings were inoculated with a spore suspension of Alternaria solani (the causal agent of tomato early blight) and incubated in a saturated atmosphere at 27° C. for 48 h, and then moved to a growth chamber at 20° C. for 5 days, after which time disease ratings were made.
Description for Botrytis cinerea: as §1
The test suspension was sprayed to the point of run-off on tomato seedlings. The following day the seedlings were inoculated with a spore suspension of Botrytis cinerea (the causal agent of tomato Botrytis) and incubated in a saturated atmosphere at 20° C. for 48 h, and then moved to a growth chamber at 24° C. for 3 days, after which time disease ratings were made.
Description for Septoria nodorum: as §1
The test suspension was sprayed to the point of run-off on wheat seedlings. The following day the seedlings were inoculated with a spore suspension of Septoria nodorum (the causal agent of wheat glume blotch) and incubated in a saturated atmosphere at 20° C. for 48 h, and then moved to a growth chamber at 20° C. for 7 days, after which time disease ratings were made.
Protocol for Septoria tritici: The test suspension was sprayed to the point of run-off on wheat seedlings. The following day the seedlings were inoculated with a spore suspension of Septoria tritici (the causal agent of wheat leaf blotch) and incubated in a saturated atmosphere at 20° C. for 48 h, and then moved to a growth chamber at 20° C. for 19 days, after which time disease ratings were made.

With `COc1cc(OC)c(Cl)c(-n2c(-c3ccc(F)cc3)cc(=O)c(C)c2-c2c(F)cc(F)cc2F)c1` [Compound 1, 1-(2-chloro-3-5-dimethoxyphenyl)-6-(4-fluorophenyl)-3-methyl-2-(2,4,6-trifluorophenyl)-4-(1H)-pyridinone], in test [1], the “Test B disease control rating” value was determined as 100%. Also, the “Test E disease control rating” value in the test on Alternaria solani stood at 100%. Further, the “Test D disease control rating” value with Septoria nodorum came to 100%. The “Test A disease control rating” value in test [2] was found to be 99%. Besides, in the test on Septoria tritici, the “Test C disease control rating” value came out at 97%. Also, the “Test F disease control rating” value in the test with Botrytis cinerea is given as 98%.
